Test results taken from patent US8486991B2, “Enantiomerically pure phosphoindoles as HIV inhibitors” (Idenix Pharmaceuticals, Inc., priority 2006, dated 2013).
“Also recorded” adds a separate entry of the source. Like-named read-outs stand apart in the source and are kept apart here.

How the values were obtained:
[1] = tested on: stimulated human primary blood mononuclear cells (PBMC); assay: in vitro; conditions: 3 days
Method: Cell viability was determined via MTT staining.

[2] = target: CYP2C9 (Homo sapiens, UniProt P11712); assay: Recombinant CYP450 inhibition, Luciferin-H, CYP2C9; format: in vitro ADME; parameters: from tissue; host or cells: pooled human liver microsomes; conditions: highest concentration tested 10 μM
CYP2C9, sequence (P11712 whole entry, the tested form may be a part): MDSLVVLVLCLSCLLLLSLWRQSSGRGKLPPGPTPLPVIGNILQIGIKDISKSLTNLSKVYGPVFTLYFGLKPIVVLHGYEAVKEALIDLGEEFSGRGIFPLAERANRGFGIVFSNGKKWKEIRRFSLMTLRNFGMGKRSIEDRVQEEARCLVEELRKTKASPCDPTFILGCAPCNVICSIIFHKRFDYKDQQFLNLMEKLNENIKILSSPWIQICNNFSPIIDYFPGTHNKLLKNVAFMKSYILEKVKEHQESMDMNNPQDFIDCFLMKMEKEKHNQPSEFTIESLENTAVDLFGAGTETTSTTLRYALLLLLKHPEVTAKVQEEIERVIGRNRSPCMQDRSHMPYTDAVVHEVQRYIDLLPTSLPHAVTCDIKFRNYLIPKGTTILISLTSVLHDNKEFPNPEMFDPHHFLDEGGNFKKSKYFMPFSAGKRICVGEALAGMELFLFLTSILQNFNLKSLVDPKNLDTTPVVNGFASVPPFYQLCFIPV
Method: CYP2C9 inhibition was performed by incubating a luminogenic CYP450 substrate Luciferin-H with CYP2C9 and an NADPH regeneration system. Luminescence measured using a Fusion plate reader.

[3] = In vitro half-life in liver microsomes, dog; format: in vitro ADME; conditions: up to one hour, longer half-lives are extrapolated, n=1
Method: In vitro metabolism was assessed using liver microsomes for all species. Compounds were incubated at 1 μM with liver microsomes for up to one hour. Reported half-lives greater than the total incubation time are extrapolated values. Extracts were assayed for disappearance of parent compound by LC-MS/MS detection.
Data represents one independent experiment conducted.

[4] = Compound depletion in hepatocytes, monkey; format: in vitro ADME; conditions: up to 2 hours, read-out: t½, Compound Depletion in Hepatocytes, Monkey
Method: Fresh hepatocytes were plated onto collagen-coated plates and exposed to test compounds at 1 μM for up to 2 hours. Tissue culture medium was assayed for compound depletion by LC/MS detection. Values in Table 23 represent independent experiments from 5 to 7 donors.

[5] = target: T1, CYP1A2 (Homo sapiens, UniProt P05177); assay: Recombinant CYP450 inhibition, fluorometric, CYP1A2; format: in vitro ADME; parameters: from tissue; host or cells: pooled human liver microsomes
T1 sequence (P05177 1-516): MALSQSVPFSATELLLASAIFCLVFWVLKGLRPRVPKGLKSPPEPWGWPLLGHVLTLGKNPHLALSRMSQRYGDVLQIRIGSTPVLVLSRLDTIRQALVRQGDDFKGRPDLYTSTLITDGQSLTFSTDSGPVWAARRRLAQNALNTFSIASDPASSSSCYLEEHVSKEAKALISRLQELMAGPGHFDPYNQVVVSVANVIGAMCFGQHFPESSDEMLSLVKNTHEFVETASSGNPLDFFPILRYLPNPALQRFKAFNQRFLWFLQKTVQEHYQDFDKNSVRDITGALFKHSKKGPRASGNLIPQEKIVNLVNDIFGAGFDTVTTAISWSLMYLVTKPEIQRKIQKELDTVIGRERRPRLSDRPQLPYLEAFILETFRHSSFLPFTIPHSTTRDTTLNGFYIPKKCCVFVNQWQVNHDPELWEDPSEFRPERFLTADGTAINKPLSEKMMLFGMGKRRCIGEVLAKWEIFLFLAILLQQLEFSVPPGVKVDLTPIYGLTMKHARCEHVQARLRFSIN
Method: Compounds were assayed using recombinant human microsomal proteins with fluorometric substrates. Signal was measured with a Fusion plate reader utilizing the appropriate excitation and emission wavelength set to detect the specific metabolite: […]

[6] = tested on: HIV-1 RT K103N mutant enzyme; format: biochemical; conditions: Table 2; mutant vs wild-type
Description: In Vitro Antiviral Activity Against Additional Mutant HIV RT Enzymes

[7] = tested on: CYP1A2 (activation of AhR in CYP1A2-DRE cells); assay: CYP1A2 induction screen in CYP1A2-DRE cells; format: cell-based, human; conditions: extent compared with TCDD, omeprazole, 2-acetylaminofluorene
Description: The potential for in vitro induction of CYP3A4 was screened in DPX2 cells. The DPX2 cell line is a derivative of a human hepatocellular carcinoma cell line (HepG2) transformed with the human pregnane x receptor (PXR) and a reporter gene vector containing the enhancer region of CYP3A4. The potential for in vitro induction of CYP1A2 was screened in CYP1A2-DRE cells. The CYP1A2-DRE cell line is a stably transformed HepG2 cells with dioxin response elements (DRE) and reporter gene containing CYP1A2 promoter elements. The extent of CYP3A4 induction was determined by comparing the activation of PXR obtained with test article to that obtained with rifampicine (potent inducer), mifepristone (moderate inducer) and androstanol (weak inducer). The extent of CYP1A2 induction was determined by comparing the activation of the aryl hydrocarbon receptor (AhR) obtained with test article to that obtained with TCDD (potent inducer), omeprazole (moderate inducer), and 2-acetylaminofluorene (weak inducer).

[8] = In vivo pharmacokinetics, rats; parameters: species or system rat; conditions: plasma
Method: All animals received a single oral or intravenous dose of compound in either polyethylene glycol 400 (PEG400) or a mixture of 10% ethanol (EtOH), 10% dimethylacetamine (DMA) and 80% PEG400 at the indicated dose level. Plasma concentration data were acquired using sensitive and specific LC-MS/MS methods. Pharmacokinetic data from the toxicity study included aspects of gender differences, variability and exposure.
Blood samples (1.5-2.5 mL) were collected in heparinized tubes at 0 (pre-dose), 5 (IV only), 10, 20, 30 min, 1, 2, 4, 6, 8, 12 (PO only) and 24 hr after dosing. Plasma was separated and stored at −70° C. until analysis.
Concentrations of unlabeled compound I and compound III within plasma samples and excreta from rat, dog and monkey PK studies were identified through high performance liquid chromatographic (HPLC) methods that incorporated tandem mass spectrometric detection (LC-MS/MS).
The absolute oral bioavailability was determined in pharmacokinetic by comparison of AUC values of parent compound following single intravenous and oral doses of in rats (compound III only), dogs and monkeys.

CO[P@](=O)(c1cc(C)cc(/C=C/C#N)c1)c1c(C(N)=O)[nH]c2ccc(Cl)c(F)c12 [Compound I, (2-Carbamoyl-5-chloro-4-fluoro-1H-indol-3-yl)-[3-((E)-2-cyano-vinyl)-5-methyl-phenyl]-(R)-phosphinic acid methyl ester]
SI values from cytotoxicity and activity data in PBMC [1]: > 100,000 | IC50 [2]: 8.4 ± 0.67 µM | half-life at 1 μM ([3]; microsomes): 19.3 min | half-life at 1 μM ([4]; hepatocytes): 63 ± 40 min | inhibition at 20 µM ([5]; human, recombinant enzyme, 20 μM, read-out: percentage of inhibition at the highest concentration tested, CYP1A2): 17.5% | Fold Change, K103N [6]: 3.2 ± 3.5 fold

CO[P@](=O)(c1cc(C)cc(/C=C/C#N)c1)c1c(C(N)=O)[nH]c2ccc(Cl)cc12 [Compound III, (2-Carbamoyl-5-chloro-1H-indol-3-yl)-[3-((E)-2-cyano-vinyl)-5-methyl-phenyl]-(R)-phosphinic acid methyl ester]
IC50 [2]: 6.85 ± 0.48 µM | half-life at 1 μM ([3]; liver microsomes): 13.2 min | half-life at 1 μM ([4]; fresh hepatocytes plated on collagen-coated plates): 52 ± 24 min | Induction, CYP1A2-DRE (CYP1A2) [7]: moderate inducers; also recorded: Not inducer (n = 1) | Tmax ([8]; male, Rat, 10 mg/kg PO-Fasted, 3M, mean): 24 min | bioavailability ([8]; male, Rat, 10 mg/kg PO-Fasted, 3M, IV 2 mg/kg, read-out: BA (absolute oral bioavailability)): 38% | bioavailability ([8]; rat, po, text b979, (5 mg/kg), read-out: oral bioavailability in rats, exploratory PK studies): 38% | IC50 ([5]; highest concentration tested 20 μM): 17.6 ± 2.06 µM
